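Tested at 5 concentrations; 48 h exposure; 96-well plates; endpoints linearly interpolated, else capped at highest concentration. At the TGI there is no net growth.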
Tests used:
Assay in all cases: DTP human tumour cell line panel, 48 h
[1] = tested on: SNB-19 CNS
[2] = tested on: K-562 leukemia
[3] = tested on: KM12 colon
[4] = tested on: A498 renal
[5] = tested on: 786-0 renal
[6] = tested on: UACC-257 melanoma
[7] = tested on: SNB-75 CNS
[8] = tested on: SK-OV-3 ovarian
[9] = tested on: UO-31 renal
[10] = tested on: HL-60(TB) leukemia
[11] = tested on: PC-3 prostate
[12] = tested on: BT-549 breast
[13] = tested on: HS 578T breast
[14] = tested on: DU-145 prostate

SMILES | TGI [1] [µM] | TGI [2] [µM] | TGI [3] [µM] | TGI [4] [µM] | TGI [5] [µM] | TGI [6] [µM] | TGI [7] [µM] | TGI [8] [µM] | TGI [9] [µM] | TGI [10] [µM] | TGI [11] [µM] | TGI [12] [µM] | TGI [13] [µM] | TGI [14] [µM]
CC(=O)OC(CC1(C)C(C)CCC23COC(=O)C2=CCCC31)c1ccoc1 (configuration not stated) | 82.9 | > 100 | 67.4 | > 100 | 32.2 | 72.5 | 78.5 | > 100 | 60 |  |  |  |  | 
CCOC(=O)C1SC(=Nc2ccc(OC)c(OC)c2)N=C1C (configuration not stated) | > 100 | > 100 | > 100 | > 100 | 90.2 | > 100 | 71.1 | > 100 | 86.7 | 49.1 |  |  |  | 
CCOC(=O)CC1COc2ccc3c(c21)OCO3 (configuration not stated) | > 100 | > 100 | > 100 | > 100 | > 100 | > 100 | > 100 | > 100 | > 100 | > 100 |  |  |  | 
CCOC(=O)CC(c1ccccc1)C(C)(C(=O)OCC)C(=O)OCC (configuration not stated) | > 100 | > 100 | > 100 |  | > 100 | > 100 | > 100 | > 100 | > 100 | > 100 | > 100 | > 100 | > 100 | > 100
O=C(O)/C(Cl)=C(\Cl)C(=O)c1ccccc1 | > 100 | > 100 | > 100 | > 100 | > 100 | > 100 | > 100 | > 100 | > 100 | > 100 |  |  |  | 
O=C(Nc1ccc(Cl)cc1C(F)(F)F)C(=O)C1CCCS1(=O)=O (configuration not stated) | > 100 | > 100 | > 100 | > 100 | > 100 | > 100 | > 100 |  |  | > 100 |  |  |  | 
CCOC(=O)C(NC(=O)c1ccccc1)(Nc1ccc(S(=O)(=O)Nc2ncccn2)cc1)C(F)(F)F (configuration not stated) | > 100 | > 100 | > 100 |  | > 100 | > 100 | > 100 | > 100 | > 100 | > 100 | > 100 | > 100 | > 100 | > 100
COc1cc(C)c(/C=C2/N=C(c3ccccc3)OC2=O)c([N+](=O)[O-])c1OC | > 100 | > 100 | > 100 | > 100 | > 100 | > 100 | > 100 | > 100 |  | > 100 | > 100 | > 100 |  | > 100
N#CCc1c(-c2ccccc2)n(S(=O)(=O)c2ccccc2)c2ccccc12 | > 100 | > 100 | > 100 |  | > 100 | > 100 | 62 |  | > 100 | > 100 |  |  |  | 
CC(C)C(=O)N1Cc2cc(Cl)cc(Cl)c2OC(=O)c2ccccc21 | > 100 | > 100 | > 100 | 97.9 | > 100 | 32.8 | 96.5 | 84.5 | > 100 | 57.6 |  |  |  | 
CN(CC(=O)O)c1ncc2c(n1)C=CCC2 | > 100 | > 100 | > 100 | > 100 | > 100 | > 100 | > 100 | > 100 | > 100 | > 100 | > 100 |  | > 100 | > 100
NS(=O)(=O)c1nnc(NC(=O)C23CC4CC(CC(C4)C2)C3)s1 | > 100 | > 100 | > 100 | > 100 | > 100 | > 100 |  | > 100 | > 100 |  |  | > 100 | > 100 | > 100
CCOC(=O)Cn1c2ccccc2c(=O)c2cc(C)c(C)c(C#N)c21 | > 100 |  |  |  | > 100 | > 100 | 66.1 | > 100 | > 100 | > 100 |  |  |  | 
COC(=O)C1CCC(=O)N1C(c1cc(OC)c(OC)c(OC)c1)c1cc(OC)c(OC)c(OC)c1 (configuration not stated) | > 100 | > 100 | > 100 | > 100 | > 100 | > 100 | > 100 | > 100 | > 100 | > 100 | > 100 |  | > 100 | > 100
CCc1c2c(cc3c1CC1(C3)Cc3cc4c(c(C(=O)OC)c3C1)CCCC4)CCCC2 (configuration not stated) |  | > 100 | > 100 | > 100 | > 100 | > 100 |  | > 100 | > 100 | > 100 | > 100 |  | 46.6 | 
CCCCCCCCCCCCOP(=O)(O)OP(=O)(O)OCC1OC(n2ccc(N)nc2=O)CC1O (configuration not stated) | > 100 | > 100 | > 100 | > 100 | > 100 | > 100 | > 100 | > 100 | > 100 | > 100 | > 100 | > 100 | > 100 | 
Clc1cccc(-c2sc(-c3ccsc3)cc2Cc2ccsc2)c1 |  | > 10 | > 10 |  | > 10 | > 10 | > 10 | > 10 |  | > 10 | > 10 |  |  | > 10
O=C(/C=C\c1cccc2ccccc12)c1ccc(F)cc1 | 31 | 33.2 | 28.8 | > 100 | 32.1 | 34.7 | 75.3 | 58.3 | 32.4 | 53 |  |  |  | 
CC12C3C4C1C1C2C3C41CO (configuration not stated) | > 100 | > 100 | > 100 | > 100 | > 100 | > 100 | > 100 | > 100 | > 100 | > 100 |  |  |  | > 100
COc1ccc(/C(C)=N/NC(=O)c2ccncc2)c(OC)c1 |  | > 10 | > 10 | > 10 | > 10 | > 10 | > 10 | > 10 | > 10 | > 10 |  | > 10 | > 10 | > 10

SMILES | TGI [1] [µM] | TGI [2] [µM] | TGI [3] [µM] | TGI [4] [µM] | TGI [5] [µM] | TGI [6] [µM] | TGI [7] [µM] | TGI [8] [µM] | TGI [9] [µM] | TGI [10] [µM] | TGI [11] [µM] | TGI [12] [µM] | TGI [13] [µM] | TGI [14] [µM]
O=C1CSC(c2c[nH]c3ccccc23)N1c1ccc(Cl)cc1 (configuration not stated) | > 100 | > 100 | > 100 | > 100 | > 100 | > 100 | > 100 | > 100 | > 100 | > 100 |  | > 100 | > 100 | > 100
CCOC(=O)C(=O)C=P(c1ccccc1)(c1ccccc1)c1ccccc1 | > 100 | > 100 | > 100 | > 100 | > 100 | > 100 | > 100 | > 100 | > 100 | > 100 |  |  |  | 
COc1ccc(OC)c(NCC(=O)Nn2cnc3ccc(S(=O)(=O)Nc4cc(OC)ccc4OC)cc3c2=O)c1 | > 100 | > 100 | > 100 |  | > 100 | > 100 | > 100 | > 100 | > 100 | 43.1 | > 100 | > 100 | > 100 | > 100
Cc1cc(Cl)nc2nc(Cl)c(N)cc12 | 9.57 | > 100 | 17.8 |  | 10.5 | 3.55 | 30 | 37.8 | 9.54 |  | 30.4 | 28.4 | > 24.3 | 18
C=CCNC(=S)N1CC(C)C(=O)Nc2cc(Cl)ccc21 (configuration not stated) | > 100 | > 100 | > 100 | > 100 | > 100 | > 100 | > 100 | > 100 | > 100 | > 100 |  |  |  | 
CC(=O)OCC1OC(n2ccc(=O)[nH]c2=O)C(OC(C)=O)C(OC(C)=O)C1OC(C)=O (configuration not stated) | > 100 | > 100 | > 100 | > 100 | > 100 | > 100 | > 100 | > 100 | > 100 |  |  |  |  | 
COC(=O)c1cc(C(=O)OC)c(CC(=O)C(=O)NC2C3CC4CC(C3)CC2C4)nc1CC(=O)C(=O)NC1C2CC3CC(C2)CC1C3 (configuration not stated) | > 100 | > 100 | > 100 | > 100 | > 100 | > 100 | > 100 | > 100 | > 100 | > 100 |  |  |  | 
O=C/C1=C/C2=Cc3ccccc3C=C(/C=C(/C=O)C1)C2 | > 100 | > 100 | > 100 | > 100 | > 100 | > 100 | 80 |  | > 100 | > 100 |  |  |  | 
COc1ccc(C2=NN(c3ccccc3)C[N+](c3ccc(C)cc3)=N2)cc1 | > 100 | 53.9 | > 10 | > 100 | > 100 | > 100 |  |  | > 100 | > 100 |  |  |  | 
C1CSCCSCCCSC2CCCCC2SC1 (configuration not stated) | > 100 | > 100 | > 100 |  | > 100 | > 100 | > 100 | > 100 | > 100 | 95.3 | > 100 | > 100 |  | > 100
Clc1cc2nn(C3CCCCO3)nc2cc1Cl (configuration not stated) | > 100 | > 100 | > 100 |  | > 100 | > 100 | > 100 | > 100 | > 100 |  | > 100 | > 100 | > 100 | > 100
CNC(=O)NCNC(=O)NC |  | > 100 | > 100 | > 100 | > 100 | > 100 | > 100 | > 100 |  | > 100 |  |  |  | 
CC(=O)c1[nH]c(NC(C)C)c(C(=S)Nc2ccccc2)c1N | 91.5 | > 100 | > 100 | 82.9 | 61.8 | 65.8 | > 100 | > 100 | 77.7 | > 100 |  | 86.4 | > 100 | > 100
COC(=O)N1CC(=O)C(C(=O)NC23CC4CC(CC(C4)C2)C3)C1 (configuration not stated) | > 100 | > 100 | > 100 | > 100 | > 100 | > 100 |  |  | > 100 | > 100 | > 100 | > 100 |  | > 100
COc1c(C)cc2c(C(C)C)c(O)c(O)c(C=O)c2c1O | > 100 | 45.4 | 56.1 |  | > 100 | 59.4 | 90.2 | > 100 | > 100 | 58.3 |  |  |  | 
COc1cc(C2C3=C(COC3=O)Oc3cc4c(cc32)OCO4)ccc1O (configuration not stated) | > 100 | > 100 | > 100 | > 25.7 | > 100 | > 100 | 0.652 | 0.932 |  |  | > 83.2 | > 100 |  | > 100
COc1cc2c(c(OC)c1OC)-c1ccc(SC)c(=O)cc1C(CC(=O)Oc1cccc([N+](=O)[O-])c1)C2 (configuration not stated) | > 100 | > 100 | 5.4 | 0.823 | > 100 | > 100 | 0.71 | > 100 | > 100 |  |  |  |  | 
CC1CN=C(NS(=O)(=O)c2cc(C(=O)Nc3ccc(Cl)cc3)c(Cl)cc2S)NN1 (configuration not stated) | > 100 | > 100 | 97.1 | 37.1 | > 100 | > 100 |  | > 100 | > 100 | > 100 | 94 | > 100 |  | > 100
S=C(NCCc1ccccn1)N/N=C/c1ccccn1 | > 100 |  | > 100 | 0.571 | > 89.7 | 1.77 | > 100 | > 100 | > 49.1 | < 0.01 | > 100 |  | > 100 | > 100
COc1ccc(/C=C2/CSCC3=C2NC(=S)NC3c2ccc(OC)c(OC)c2OC)c(OC)c1OC (configuration not stated) | 51.5 | > 100 | 34.1 | 39.1 | 40.7 | 67.7 | > 100 | > 100 |  | > 100 | 46.2 |  | > 100 | > 100

Reference: PubChem BioAssay (NCI)
